Reference: patent US20150352108A1, “AMINO-PYRIMIDINE COMPOUNDS AS INHIBITORS OF TBK1 AND/OR IKK EPSILON” (Alzheimer's Institute of America, priority 2009, published 2015)

What was measured:
[1] = target: T1, IKKε (Homo sapiens, UniProt Q14164); experiment: In-vitro IKKε kinase assay ([γ33]ATP filter-plate); type: biochemical; conditions: text bins; read-out: IC50 for inhibition of the kinase activity of IKKε
T1 construct: His-tag; made in house; host or cells: Sf9 insect cells
T1 sequence (Q14164 1-716): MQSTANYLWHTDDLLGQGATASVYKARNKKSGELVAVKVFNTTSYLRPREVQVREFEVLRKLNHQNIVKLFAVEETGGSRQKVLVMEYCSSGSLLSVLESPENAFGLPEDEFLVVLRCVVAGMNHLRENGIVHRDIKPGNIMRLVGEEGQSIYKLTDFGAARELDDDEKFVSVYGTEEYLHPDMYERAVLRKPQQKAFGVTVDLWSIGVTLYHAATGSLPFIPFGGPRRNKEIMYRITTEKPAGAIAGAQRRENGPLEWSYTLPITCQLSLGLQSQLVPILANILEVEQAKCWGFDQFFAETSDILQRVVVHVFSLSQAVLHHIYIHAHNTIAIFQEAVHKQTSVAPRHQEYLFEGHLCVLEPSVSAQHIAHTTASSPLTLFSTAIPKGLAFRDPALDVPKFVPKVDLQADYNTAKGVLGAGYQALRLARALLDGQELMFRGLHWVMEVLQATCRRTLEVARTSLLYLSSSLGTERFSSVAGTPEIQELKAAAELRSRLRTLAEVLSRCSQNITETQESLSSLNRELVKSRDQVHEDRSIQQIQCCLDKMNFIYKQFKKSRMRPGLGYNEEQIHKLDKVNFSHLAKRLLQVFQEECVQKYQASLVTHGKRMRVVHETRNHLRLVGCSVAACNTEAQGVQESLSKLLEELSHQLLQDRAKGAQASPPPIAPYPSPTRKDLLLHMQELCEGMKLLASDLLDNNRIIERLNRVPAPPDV
Procedure, shortened: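 Phosphorylation of casein or myelin basic protein was counted by P-81 filter capture after 30-45 min reactions stopped with phosphoric acid, with counts normalized to DMSO after background subtraction. ATP was twice Km: 60 μM for TBK1 and 32 μM for IKKε, plus [γ33]ATP. Sf9-expressed His-tag enzymes were used at normal/sensitized levels of 0.1/0.02 μg/ml (TBK1) and 0.1/0.015 μg/ml (IKKε).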

[2] = target: T2, TBK1 (Homo sapiens, UniProt Q9UHD2); experiment: In-vitro TBK1 kinase assay ([γ33]ATP filter-plate); type: biochemical; conditions: text bins; read-out: IC50 for inhibition of the kinase activity of TBK1
T2 construct: His-tag; made in house; host or cells: Sf9 insect cells
T2 sequence (Q9UHD2 1-729): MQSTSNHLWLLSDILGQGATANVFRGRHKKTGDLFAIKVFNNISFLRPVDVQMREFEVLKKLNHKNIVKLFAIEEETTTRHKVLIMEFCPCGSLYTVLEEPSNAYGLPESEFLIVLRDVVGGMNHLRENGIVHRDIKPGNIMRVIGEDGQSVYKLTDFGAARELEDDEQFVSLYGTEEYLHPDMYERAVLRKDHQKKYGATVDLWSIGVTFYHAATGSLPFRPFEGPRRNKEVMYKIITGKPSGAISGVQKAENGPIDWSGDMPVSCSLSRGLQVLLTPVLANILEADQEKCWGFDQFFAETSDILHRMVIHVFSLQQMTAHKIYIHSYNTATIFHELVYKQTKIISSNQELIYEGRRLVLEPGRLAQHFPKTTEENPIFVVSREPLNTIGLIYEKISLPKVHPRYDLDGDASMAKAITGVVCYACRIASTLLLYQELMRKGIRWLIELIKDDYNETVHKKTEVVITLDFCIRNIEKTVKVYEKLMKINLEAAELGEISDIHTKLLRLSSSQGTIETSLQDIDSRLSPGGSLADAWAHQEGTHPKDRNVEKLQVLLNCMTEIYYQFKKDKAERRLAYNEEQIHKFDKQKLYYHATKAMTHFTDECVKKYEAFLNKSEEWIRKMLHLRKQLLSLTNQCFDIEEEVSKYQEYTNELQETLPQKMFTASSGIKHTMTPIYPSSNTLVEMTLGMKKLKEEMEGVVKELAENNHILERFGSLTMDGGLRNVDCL
Method: IKKε enzyme was produced as a His-tag fusion in Sf9 cells and used at a final concentration of […]. TBK1 enzyme was produced as a His-tag fusion in Sf9 cells and used at a final concentration of 0.1 μg/ml. Kinase reactions were carried out in reaction buffer using myelin basic protein (Millipore, Ballerica, Mass.) or casein (Sigma, St. Louis, Mo.) as substrate at an ATP concentration equal to twice the Km,ATP value for each enzyme, corresponding to 32 μM ATP for IKKε and 60 μM ATP for TBK1, in the presence of 0.3 μCi [γ^33]ATP (PerkinElmer, Waltham, Mass.). Final enzyme concentrations were 0.1 or 0.015 μg/ml (IKKε) and 0.1 or 0.02 μg/ml (TBK1), representing “normal” and “sensitized” assay conditions respectively. Test compounds (or DMSO solvent as a control) were added prior to initiation of the reactions. Reactions were terminated after 30-45 minutes by adding 3% phosphoric acid. Terminated reactions were transferred to P-81 cellulose phosphate filterplates (Whatman, Inc., Piscataway, N.J.) and washed with 1% phosphoric acid on a vacuum apparatus. After air drying, scintillant (PerkinElmer, Waltham, Mass.) was added and the plates were read on a PerkinElmer TopCount NXT instrument. Counts were normalized to DMSO controls after background subtraction.

Row | Structure (SMILES) | IC50 [1] [nM] | IC50 [2] [nM]
1 | CC(C)CC(=O)Nc1ccc(-c2ccnc(Nc3ccc(N4CCOCC4)cc3)n2)cc1C#N [Example 1, N-[2-cyano-4-(2-{[4-(morpholin-4-yl)phenyl]amino}pyrimidin-4-yl)phenyl]-3-methylbutanamide] | 5 to 50 | < 10
2 | N#Cc1cc(-c2ccnc(Nc3ccc(NC(=O)NCCO)cc3)n2)ccc1OC1CCOCC1 [Example 11, 1-[4-({4-[3-cyano-4-(tetrahydro-2H-pyran-4-yloxy)phenyl]pyrimidin-2-yl}amino)phenyl]-3-(2-hydroxyethyl)urea] | < 5 | < 10
3 | N#Cc1cc(-c2ccnc(Nc3ccccc3)n2)ccc1OC1CCOCC1 [Example 12] | 5 to 50 | 10 to 100
4 | N#Cc1cc(-c2ccnc(Nc3ccc(NC(=O)N4CCOCC4)cc3)n2)ccc1OC1CCOCC1 [Example 13, N-[4-({4-[3-cyano-4-(tetrahydro-2H-pyran-4-yloxy)phenyl]pyrimidin-2-yl}amino)phenyl] morpholin-4-carboxamide] | 5 to 50 | < 10
5 | N#Cc1cc(-c2ccnc(Nc3ccc(NC(=O)Nc4cccnc4)cc3)n2)ccc1OC1CCOCC1 [Example 14, 1-[4-({4-[3-cyano-4-(tetrahydro-2H-pyran-4-yloxy)phenyl]pyrimidin-2-yl}amino)phenyl]-3-pyridin-3-ylurea] | < 5 | < 10
6 | N#Cc1cc(-c2ccnc(Nc3ccc(NC(=O)Nc4ccncc4)cc3)n2)ccc1OC1CCOCC1 [Example 17, 1-[4-({4-[3-cyano-4-(tetrahydro-2H-pyran-4-yloxy)phenyl]pyrimidin-2-yl}amino)phenyl]-3-pyridin-4-ylurea] | 5 to 50 | 10 to 100
7 | N#Cc1cc(-c2ccnc(Nc3ccc(N4CCOCC4)c(F)c3)n2)ccc1OC1CCOCC1 [Example 24, 5-(2-{[3-fluoro-4-(morpholin-4-yl)phenyl]amino}pyrimidin-4-yl)-2-(tetrahydro-2H-pyran-4-yloxy)benzonitrile] | < 5 | < 10
8 | N#Cc1cccc(-c2ccnc(Nc3ccc(OCCN4CCOCC4)cc3)n2)c1 [Example 283, 3-[2-({4-[2-(Morpholin-4-yl)ethoxy]phenyl}amino)pyrimidin-4-yl]benzonitrile] |  | 10 to 100
9 | N#Cc1cccc(-c2ccnc(Nc3ccc(Cl)cc3)n2)c1 [compound 340, 3-{2-[(4-Chlorophenyl)amino]pyrimidin-4-yl}benzonitrile] |  | 100 to 500

The next lines start with the values.

Row | IC50 [1] [nM] | IC50 [2] [nM] | Structure (SMILES)
10 | < 5 | < 10 | C[C@H](O)C(=O)N1CCC(Oc2ccc(-c3ccnc(Nc4ccc(C(=O)NCCCN(C)C)cc4)n3)cc2C#N)CC1 [Example 4, 4-({4-[3-cyano-4-({1-[(2S)-2-hydroxypropanoyl]piperidin-4-yl}oxy)phenyl]pyrimidin-2-yl}amino)-N-[3-(dimethylamino)propyl]benzamide]
11 | < 5 | < 10 | C[C@H](O)C(=O)N1CCC(Oc2ccc(-c3ccnc(Nc4ccc(N5CCOCC5)cc4)n3)cc2C#N)CC1 [Example 6, 2-({1-[(2S)-2-Hydroxypropanoyl]piperidin-4-yl}oxy)-5-(2-{[4-(morpholin-4-yl)phenyl]amino}pyrimidin-4-yl)benzonitrile]
12 | < 5 | < 10 | N#Cc1cc(-c2ccnc(Nc3ccc4scnc4c3)n2)ccc1OC1CCOCC1 [Example 15, 5-[2-(1,3-benzothiazol-5-ylamino)pyrimidin-4-yl]-2-(tetrahydro-2H-pyran-4-yloxy)benzonitrile]
13 | < 5 | < 10 | N#Cc1cc(-c2ccnc(Nc3ccc4ncsc4c3)n2)ccc1OC1CCOCC1 [Example 16, 5-[2-(1,3-benzothiazol-6-ylamino)pyrimidin-4-yl]-2-(tetrahydro-2H-pyran-4-yloxy)benzonitrile]
14 | 5 to 50 | < 10 | CC(=O)N1CCN(C(=O)Nc2ccc(Nc3nccc(-c4ccc(OC5CCOCC5)c(C#N)c4)n3)cc2)CC1 [Example 19, 4-acetyl-N-[4-({4-[3-cyano-4-(tetrahydro-2H-pyran-4-yloxy)phenyl]pyrimidin-2-yl}amino)phenyl] piperazine-1-carboxamide]
15 | 5 to 50 | < 10 | N#Cc1cc(-c2ccnc(Nc3ccc4c(c3)OCO4)n2)ccc1OC1CCOCC1 [Example 23, 5-[2-(1,3-benzodioxol-5-ylamino)pyrimidin-4-yl]-2-(tetrahydro-2H-pyran-4-yloxy)benzonitrile]
16 | < 5 | < 10 | COc1cc(Nc2nccc(-c3ccc(OC4CCOCC4)c(C#N)c3)n2)ccc1OCCOCCNS(=O)(=O)N(C)C [Example 26, N′-(2-{2-[4-({4-[3-cyano-4-(tetrahydro-2H-pyran-4-yloxy)phenyl]pyrimidin-2-yl}amino)-2-methoxyphenoxy]ethoxy}ethyl)-N,N-dimethylsulfuric diamide]
17 | < 5 | < 10 | COc1cc(Nc2nccc(-c3ccc(OC4CCOCC4)c(C#N)c3)n2)ccc1OCCCS(=O)(=O)N1CCOCC1 [Example 28, 5-[2-({3-methoxy-4-[3-(morpholin-4-ylsulfonyl)propoxy]phenyl}amino)pyrimidin-4-yl]-2-(tetrahydro-2H-pyran-4-yloxy)benzonitrile]
18 | < 5 | < 10 | COc1cc(Nc2nccc(-c3ccc(OC4CCOCC4)c(C#N)c3)n2)ccc1OCCOCCNS(=O)(=O)N1CCOCC1 [Example 29, N-(2-{2-[4-({4-[3-cyano-4-(tetrahydro-2H-pyran-4-yloxy)phenyl]pyrimidin-2-yl}amino)-2-methoxyphenoxy]ethoxy}ethyl) morpholine-4-sulfonamide]
19 | < 5 | < 10 | COc1cc(Nc2nccc(-c3ccc(OC(C)C)c(C#N)c3)n2)cc(OC)c1OC [Example 33, 2-(Propan-2-yloxy)-5-{2-[(3,4,5-trimethoxyphenyl)amino]pyrimidin-4-yl}benzonitrile]
20 | < 5 | < 10 | COc1cc(Nc2nccc(-c3ccc(OC4CCN(C(C)=O)CC4)c(C#N)c3)n2)cc(OC)c1OC [Example 34, 2-[(1-acetylpiperidin-4-yl)oxy]-5-{2-[(3,4,5-trimethoxyphenyl)amino]pyrimidin-4-yl}benzonitrile]
21 |  | 100 to 500 | COc1cc(Nc2nccc(-c3ccc(OC4CCN(C(=O)OC(C)(C)C)CC4)c(C#N)c3)n2)ccc1N1CCOCC1 [Example 263, tert-butyl 4-[2-cyano-4-(2-{[3-methoxy-4-(morpholin-4-yl)phenyl]amino}pyrimidin-4-yl)phenoxy]piperidine-1-carboxylate]
